Consider 25 compounds from patent US9873696B2, “Neprilysin inhibitors” (THERAVANCE BIOPHARMA R&D IP, LLC, priority 2010, dated 2018).

In general, Ki refers to the dissociation constant of the complex between target and ligand, obtained from inhibition or displacement.

The target in this assay is T1, human NEP (Homo sapiens, UniProt P08473).
T1 construct: purchased R&D Systems, Minneapolis, Minn; 1182-ZN
T1 sequence (P08473 whole entry): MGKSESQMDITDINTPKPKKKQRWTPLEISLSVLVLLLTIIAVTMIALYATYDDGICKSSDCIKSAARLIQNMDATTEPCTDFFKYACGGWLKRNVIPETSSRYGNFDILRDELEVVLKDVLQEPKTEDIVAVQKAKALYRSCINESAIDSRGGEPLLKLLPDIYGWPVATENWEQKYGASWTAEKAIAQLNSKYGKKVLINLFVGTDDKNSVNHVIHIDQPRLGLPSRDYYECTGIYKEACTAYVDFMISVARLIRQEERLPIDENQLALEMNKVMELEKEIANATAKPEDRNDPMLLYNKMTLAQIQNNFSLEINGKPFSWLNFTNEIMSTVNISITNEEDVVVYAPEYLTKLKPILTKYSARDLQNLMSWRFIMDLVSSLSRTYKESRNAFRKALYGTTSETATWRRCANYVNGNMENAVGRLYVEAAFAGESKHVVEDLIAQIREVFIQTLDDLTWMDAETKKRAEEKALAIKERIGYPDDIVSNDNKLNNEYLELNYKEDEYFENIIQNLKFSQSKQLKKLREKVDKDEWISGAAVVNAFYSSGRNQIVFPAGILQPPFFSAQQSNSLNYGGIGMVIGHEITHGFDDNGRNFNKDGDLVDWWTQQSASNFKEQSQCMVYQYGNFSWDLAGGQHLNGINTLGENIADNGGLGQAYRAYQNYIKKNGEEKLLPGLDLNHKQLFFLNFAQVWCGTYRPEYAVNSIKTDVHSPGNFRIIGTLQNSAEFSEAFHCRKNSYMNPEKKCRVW
The experiment in a line: In vitro enzyme inhibition assay at human NEP (Assay 1). The settings on record: recombinant enzyme, fluorogenic peptide substrate, 37° C. It is filed as biochemical. As for the experimental part: In Vitro Assays for the Quantitation of Inhibitor Potencies (IC50) at Human and Rat NEP, and Human ACE
The inhibitory activities of compounds at human and rat neprilysin (EC 3.4.24.11; NEP) and human angiotensin converting enzyme (ACE) were determined using in vitro assays as described below.
Recombinant human NEP and recombinant human ACE were obtained commercially (R&D Systems, Minneapolis, Minn., catalog numbers 1182-ZN and 929-ZN, respectively). The fluorogenic peptide substrate Mca-D-Arg-Arg-Leu-Dap-(Dnp)-OH (Medeiros et al. (1997) Braz. J. Med. Biol. Res. 30:1157-62; Anaspec, San Jose, Calif.) and Abz-Phe-Arg-Lys(Dnp)-Pro-OH (Araujo et al. (2000) Biochemistry 39:8519-8525; Bachem, Torrance, Calif.) were used in the NEP and ACE assays respectively.
The assays were performed in 384-well white opaque plates at 37° C. using the fluorogenic peptide substrates at a concentration of 10 μM in Assay Buffer (NEP: 50 mM HEPES, pH 7.5, 100 mM NaCl, 0.01% polyethylene glycol sorbitan monolaurate (Tween-20), 10 μM ZnSO4; ACE: 50 mM HEPES, pH 7.5, 100 mM NaCl, 0.01% Tween-20, 1 μM ZnSO4).
Test compounds were assayed over the range of concentrations from […] to 20 μM. Test compounds were added to the enzymes and incubated for 30 minute at 37° C. prior to initiating the reaction by the addition of substrate. Reactions were terminated after 20 minutes of incubation at 37° C. by the addition of glacial acetic acid to a final concentration of 3.6% (v/v).
Plates were read on a fluorometer with excitation and emission wavelengths set to 320 nm and 405 nm, respectively. Inhibition constants were obtained by nonlinear regression of the data using the equation (GraphPad Software, Inc., San Diego, Calif.): v=v0/[1+(I/K′)] where v is the reaction rate, v0 is the uninhibited reaction rate, I is the inhibitor concentration and K′ is the apparent inhibition constant.
Compounds of the invention were tested in this assay and found to have pKi values at human NEP as follows.
As to `O=C(O)c1cc(C(=O)NN(Cc2ccc(-c3cccc(Cl)c3)cc2)C[C@@H](O)C(=O)O)[nH]n1` [Example 4-23, 5-[N′-((R)-2-Carboxy-2-hydroxy-ethyl)-N′-(3′-chlorobiphenyl-4-ylmethyl)-hydrazinocarbonyl]-1H-pyrazole-3-carboxylic acid], the inhibitory constant (Ki) is at most 1 nM.

For `Cc1c(Cl)cc(Cl)cc1-c1ccc(CN(C[C@H](O)C(=O)O)NC(=O)c2cc(O)no2)cc1` [Example 8-28, (S)-3-[N-(3′,5′-Dichloro-2′-methyl-biphenyl-4-ylmethyl)-N′-(3-hydroxy-isoxazole-5-carbonyl)-hydrazino]-2-hydroxy-propionic acid], the Ki is 12.6 to 100 nM.

Consider `O=C(NN(Cc1ccc(-c2cc(F)cc(F)c2)cc1)C[C@H](O)C(=O)O)c1cc(O)no1` [Example 8-26, (S)-3-[N-(3′,5′-Difluoro-biphenyl-4-ylmethyl)-N′-(3-hydroxy-isoxazole-5-carbonyl)-hydrazino]-2-hydroxy-propionic acid], for which the Ki is 12.6 to 100 nM.

`O=C(NN(Cc1ccc(-c2ccccc2)cc1)C[C@@H](O)C(=O)O)c1cc(C(=O)N2CCC(O)C2)n[nH]1` (stereo partly drawn) [Example 2-10, (R)-3-{N-Biphenyl-4-ylmethyl-N′-[5-(3-hydroxy-pyrrolidine-1-carbonyl)-2H-pyrazole-3-carbonyl]hydrazino}-2-hydroxypropionic acid]: the inhibition constant Ki was 1.26 to 10 nM.

For the compound `O=C(NN(Cc1ccc(-c2cccc(Cl)c2)cc1)C[C@@H](O)C(=O)O)c1cc(-c2ccccc2O)n[nH]1` [Example 4-19, (R)-3-{N-(3′-Chlorobiphenyl-4-ylmethyl)-N′-[5-(2-hydroxy-phenyl)-2H-pyrazole-3-carbonyl]-hydrazino}-2-hydroxy-propionic acid], the inhibition constant (Ki) is 1.26 to 10 nM.

In the case of `NS(=O)(=O)CCNC(=O)c1cc(C(=O)NN(Cc2ccc(-c3ccccc3)cc2)C[C@@H](O)C(=O)O)[nH]n1` [Example 2-3, (R)-3-{N-Biphenyl-4-ylmethyl-N′-[5-(2-sulfamoylethylcarbamoyl)-2H-pyrazole-3-carbonyl]hydrazino}-2-hydroxypropionic acid], the Ki is 1.26 to 10 nM.

In the case of `O=C(NN(Cc1ccc(-c2cccc(Cl)c2)cc1F)C[C@@H](O)C(=O)O)c1nnn[nH]1` [Example 10-8, (R)-3-[N-(3′-Chloro-3-fluoro-biphenyl-4-ylmethyl)-N′-(1H-tetrazole-5-carbonyl)-hydrazino]-2-hydroxy-propionic acid], the Ki is 1.26 to 10 nM.

Consider `O=C(NN(Cc1ccc(-c2cccc(Cl)c2)cc1)C[C@@H](O)C(=O)O)c1c[nH]c(=O)o1` [Example 4-39, (R)-3-[N-(3′-Chlorobiphenyl-4-ylmethyl)-N′-(2-oxo-2,3-dihydro-oxazole-5-carbonyl)-hydrazino]-2-hydroxy-propionic acid], for which the inhibitory constant (Ki) was 1.26 to 10 nM.

In the case of `COCc1cc(C(=O)NN(Cc2ccc(-c3cccc(Cl)c3)cc2)C[C@@H](O)C(=O)O)[nH]n1` [Example 4-26, (R)-3-[N-(3′-Chlorobiphenyl-4-ylmethyl)-N′-(5-methoxymethyl-2H-pyrazole-3-carbonyl)-hydrazino]-2-hydroxy-propionic acid], the Ki was 1.26 to 10 nM.

`COc1cc(C(=O)NN(Cc2ccc(-c3cccc(Cl)c3)cc2)C[C@@H](O)C(=O)O)on1` [Example 4-32, (R)-3-[N-(3′-Chlorobiphenyl-4-ylmethyl)-N′-(3-methoxy-isoxazole-5-carbonyl)-hydrazino]-2-hydroxy-propionic acid]: the Ki was 1.26 to 10 nM.

In the case of `O=C(NN(Cc1ccc(-c2ccccc2F)cc1)C[C@@H](O)C(=O)O)c1cc(O)no1` [Example 5-8, (R)-3-[N-(2′-Fluoro-biphenyl-4-ylmethyl)-N′-(3-hydroxy-isoxazole-5-carbonyl)-hydrazino]-2-hydroxy-propionic acid], the Ki was 1.26 to 10 nM.

As for `O=C(NN(Cc1ccc(-c2ccccc2Cl)cc1)C[C@@H](O)C(=O)O)c1cc(O)no1` [Example 5-7, (R)-3-[N-(2′-Chloro-biphenyl-4-ylmethyl)-N′-(3-hydroxy-isoxazole-5-carbonyl)-hydrazino]-2-hydroxy-propionic acid], the Ki is 1.26 to 10 nM.

On to `N#Cc1cc(-c2cccc(Cl)c2)ccc1CN(C[C@@H](O)C(=O)O)NC(=O)c1cc(O)no1` [Example 10-2, (R)-3-[N-(3′-Chloro-3-cyano-biphenyl-4-ylmethyl)-N′-(3-hydroxy-isoxazole-5-carbonyl)-hydrazino]-2-hydroxy-propionic acid], for which the Ki is 1.26 to 10 nM.

With `COc1ccccc1-c1ccc(CN(C[C@@H](O)C(=O)O)NC(=O)c2nnn[nH]2)cc1` [Example 5-10, (R)-2-Hydroxy-3-[N-(2′-methoxy-biphenyl-4-ylmethyl)-N′-(1H-tetrazole-5-carbonyl)-hydrazino]-propionic acid], the Ki is 1.26 to 10 nM.

As for `O=C(NN(Cc1ccc(-c2cc(Cl)ccc2F)cc1)C[C@@H](O)C(=O)O)c1ccc(=O)[nH]n1` [Example 8-58, (R)-3-[N-(5′-Chloro-2′-fluoro-biphenyl-4-ylmethyl)-N′-(6-oxo-1,6-dihydro-pyridazine-3-carbonyl)-hydrazino]-2-hydroxy-propionic acid], the Ki was at most 1 nM.

Regarding `O=C(NN(Cc1ccc(-c2cc(Cl)ccc2F)cc1)C[C@@H](O)C(=O)O)c1cc(-c2ccccn2)n[nH]1` [Example 8-36, (R)-3-[N-(5′-Chloro-2′-fluoro-biphenyl-4-ylmethyl)-N′-(5-pyridin-2-yl-2H-pyrazole-3-carbonyl)-hydrazino]-2-hydroxy-propionic acid], the inhibition constant (Ki) was at most 1 nM.

As for `O=C(NN(Cc1ccc(-c2cc(Cl)ccc2F)cc1)C[C@@H](O)C(=O)O)c1cc(C2CC2)n[nH]1` [Example 8-43, (R)-3-[N-(5′-Chloro-2′-fluoro-biphenyl-4-ylmethyl)-N′-(5-cyclopropyl-2H-pyrazole-3-carbonyl)-hydrazino]-2-hydroxy-propionic acid], the Ki was at most 1 nM.

With `O=C(NN(Cc1ccc(-c2cccc(Cl)c2O)cc1)C[C@@H](O)C(=O)O)c1cc(O)no1` [Example 8-7, (R)-3-[N-(3′-Chloro-2′-hydroxy-biphenyl-4-ylmethyl)-N′-(3-hydroxy-isoxazole-5-carbonyl)-hydrazino]-2-hydroxy-propionic acid], the inhibition constant (Ki) is 1.26 to 10 nM.

Take `O=C(NN(Cc1ccc(-c2cc(Cl)ccc2F)cc1)C[C@@H](O)C(=O)O)c1cn(O)nn1` [Example 8-76, (R)-3-[N-(5′-Chloro-2′-fluoro-biphenyl-4-ylmethyl)-N′-(1-hydroxy-1H-[1,2,3]triazole-4-carbonyl)-hydrazino]-2-hydroxy-propionic acid]: the Ki was at most 1 nM.

As for `O=C(NN(Cc1ccc(-c2cc(Cl)ccc2F)cc1)C[C@@H](O)C(=O)O)c1cc(Cl)c2nn[nH]c2c1` [Example 8-69, (R)-3-[N′-(7-Chloro-3H-benzotriazole-5-carbonyl)-N-(5′-chloro-2′-fluoro-biphenyl-4-ylmethyl)-hydrazino]-2-hydroxy-propionic acid], the Ki was at most 1 nM.

In the case of `Cc1ccc(Cl)cc1-c1ccc(CN(C[C@@H](O)C(=O)O)NC(=O)c2cc(O)no2)cc1` [Example 8-1, (R)-3-[N-(5′-Chloro-2′-methyl-biphenyl-4-ylmethyl)-N′-(3-hydroxy-isoxazole-5-carbonyl)-hydrazino]-2-hydroxy-propionic acid], the Ki is at most 1 nM.

For `CCCCc1cc(C(=O)NN(Cc2ccc(-c3cc(Cl)ccc3F)cc2)C[C@@H](O)C(=O)O)[nH]n1` [Example 8-42, (R)-3-[N′-(5-Butyl-2H-pyrazole-3-carbonyl)-N-(5′-chloro-2′-fluoro-biphenyl-4-ylmethyl)-hydrazino]-2-hydroxy-propionic acid], the Ki is at most 1 nM.

Turning to `COc1ccccc1-c1ccc(CN(C[C@@H](O)C(=O)O)NC(=O)c2cc(O)no2)cc1` [Example 5-5, (R)-2-Hydroxy-3-[N′-(3-hydroxy-isoxazole-5-carbonyl)-N-(2′-methoxy-biphenyl-4-ylmethyl)-hydrazino]-propionic acid], the Ki was 1.26 to 10 nM.

With `O=C(NN(Cc1ccc(-c2ccccc2)cc1)C[C@@H](O)C(=O)O)c1cc(C(=O)N2CCCC2)n[nH]1` [Example 2-9, (R)-3-{N-Biphenyl-4-ylmethyl-N′-[5-(pyrrolidine-1-carbonyl)-2H-pyrazole-3-carbonyl]hydrazino}-2-hydroxypropionic acid], the Ki is 1.26 to 10 nM.

As for `O=C(NN(Cc1ccc(-c2ccccc2)cc1)C[C@@H](O)C(=O)O)c1cc(C(=O)N2CCOCC2)n[nH]1` [Example 2-15, (R)-3-{N-Biphenyl-4-ylmethyl-N′-[5-(morpholine-4-carbonyl)-2H-pyrazole-3-carbonyl]hydrazino}-2-hydroxypropionic acid], the Ki was 1.26 to 10 nM.
